Experimental data: paper PMC5556071, “ATR inhibition facilitates targeting of leukemia dependence on convergent nucleotide biosynthetic pathways” (Nature Communications, 2017)
Where “and” joins values, the source holds several entries; their conditions need not be identical. Equal entries are not always repeated.

Legend:
Format in all cases: cell-based, human
CHEK1 pS345 = experiment: Western blot of replication stress marker in CEM cells
Method: Cells were lysed using RIPA buffer supplemented with protease (ThermoFisher, 78,430) and phosphatase (ThermoFisher, 78,420) inhibitors, scraped, sonicated, and centrifuged (20,000 × g at 4 °C). Protein concentrations in the supernatant were determined using the Micro BCA Protein Assay kit (Thermo), and equal amounts of protein were resolved on pre-made Bis-Tris polyacrylamide gels (Life Technologies). Primary antibodies: pS345 CHEK1 (Cell signaling, #2348 L, 1:1000), pT68 CHEK2 (Cell signaling, #2197 S, 1:1000), pS139 H2A.X (Millipore, 05-636, 1:1000), clvd. Casp8 (Cell signaling, #8592, 1:1000), clvd. Casp9 (Cell signaling, #9502, 1:1000), clvd. Casp3 (Cell signaling, #9662, 1:1000), clvd. PARP (Cell signaling, #5625 P, 1:1000), and anti-actin (Cell Signaling Technology, 9470, 1:10,000). Primary antibodies were stored in 5% BSA (Sigma-Aldrich) and 0.1% NaN3 in TBST solution. Anti-rabbit IgG HRP-linked (Cell Signaling Technology, 7074, 1:2500) and anti-mouse IgG HRP-linked (Cell Signaling Technology, 7076, 1:2500) were used as secondary antibodies. Chemiluminescent substrates (ThermoFisher Scientific, 34,077 and 34,095) and autoradiography film (Denville) were used for detection.

CEM cells = experiment: Quantitative global proteomics (nLC-MS/MS), cells 12 h after release from G1 arrest; set-up: key to RNR Level / dCK Level: ↓: partial decrease/inhibition; ↓↓↓: nearly complete inhibition; ↑: increase; ⟷: no change; conditions: for Protein expression level normalized to control (NT): Eukaryotic translation initiation factor 6 (EIF6) / Protein expression level normalized to control (NT): Ribonucleoside-diphosphate reductase subunit M2 (RRM2) / Protein expression level normalized to control (NT): Translationally-controlled tumor protein (TPT1): 12 h following release from G1 arrest, independent analyses #1-#4; for RNR Level / dCK Level: summary Fig. 2g, CEM cells
Method: To investigate the molecular mechanisms underlying the metabolic consequences of ATR and dCK inhibition, global changes in protein expression were assessed in CEM cells using quantitative nano-LC tandem MS (nLC-MS/MS) (Fig. 2a). Chemical isotope coding following reductive dimethylation of peptide N-termini and lysine primary amines with differential stable isotopes (light:medium:heavy) was used to compare expression of experimental (VE-822, dCKi and VE-822 + dCKi) samples to controls (untreated, NT) by mixing equal proportions for triplex nLC-MS/MS quantitative analyses. The data set was filtered for proteins identified in all treatment groups in three independent experiments with coefficients of variation <20%. This yielded 1757 proteins with relative fold changes in treated vs. untreated cells ranging from 0.45 to 1.83. […] Protein levels of both RNR subunits, RRM1 and RRM2, as well as thymidylate synthase decreased by more than 20% following ATR inhibition (Fig. 2c). Changes in the expression of de novo enzymes observed in synchronous cells also occurred with ATR inhibition in asynchronous CEM cells (Fig. 2d and Supplementary Data 3), thereby arguing against the possibility of experimental artifacts introduced by Palbociclib-mediated cell cycle synchronization. The reduction in RRM2 levels induced by ATR inhibition was accompanied by an ~ 50% decrease in the phosphorylation of RRM2 on threonine 33 (pT33) (Fig. 2e), a phosphosite previously linked to the RRM2 stability. […]
Proteomic analyzes. CCRF-CEM cells were treated ± with a CDK4/6 inhibitor, PD-0332991 (Selleckchem) for 18 h to arrest at G1 phase. Cells were then washed twice with PBS and released in fresh media with treatment at a density of 1 x 10^6 cells/mL. Cells were collected at 12 h, washed twice with ice-cold PBS, and lysed by trituration using 1 mL per 5 x 10^7 cells of 0.5% sodium deoxycholate, 12 mM sodium lauryl sarcosine, and 50 mM triethylammonium bicarbonate, pH 8.0. Lysates were heated at 95 °C for 5 min and water bath sonicated at room temperature (RT) for 5 min. Bicinchoninic acid protein assay (Pierce) was performed to determine protein concentration. Disulfide bridges were reduced with 5 mM tris(2-carboxyethyl)phosphine (final concentration) at RT for 30 min with subsequent treatment with 10 mM iodoacetamide (final concentration) at RT in the dark for 30 min. Solutions were diluted 1:5 (v:v) with 50 mM triethylammonium bicarbonate. Proteins were cleaved with sequencing grade trypsin (Promega) at 1:100 (enzyme:protein) for 4 h at 37 °C followed by a second aliquot of trypsin 1:100 (enzyme:protein) overnight at 37 °C. Samples were acidified with 0.5% trifluoroacetic acid (final concentration), vortexed rapidly for 5 min, and centrifuged (16,000 x g for 5 min, RT) to pellet sodium deoxycholate. Supernatants were transferred to new microcentrifuge tubes and 20 µg of total peptide were desalted using C18 StageTips as previously described2. On-column dimethyl labeling using C18 StageTips was performed as previously described3. Briefly, StageTips were equilibrated with 20 μL of 250 mM 2-(N-morpholino)ethanesulfonic acid (MES) pH 5.5. Tryptic peptides were dimethyl labeled using 60 mM sodium cyanoborohydride, 0.4% formaldehyde, and 250 mM MES pH 5.5 for 10 min. Dimethyl labeled peptides were eluted from StageTips using 20 μL of 80% acetonitrile with 0.1% trifluoroacetic acid and lyophilized to dryness. Due to the nature of comparing 4 sample groups and being limited to 3 channels for stable isotope reductive amination labeling, two independent multiplexed experiments were run with each

Jurkat cells = experiment: Cell cycle histograms (propidium iodide flow cytometry); conditions: dCKi 1 µM, 24 h
Method: Cell cycle histograms. Cells were plated at a density of 0.5 x 10^6 cells/mL in respective media or drug treated
media. Following 24 h incubation, cells were harvested and washed twice with PBS twice before staining with
0.5 ml of propidium iodide (Calbiochem, #P3566, 1 µg/mL) solution containing Ribonuclease A and 0.3%
Triton-X 100. The samples were protected from light before acquisition by flow cytometry. […]

[1] = Suppl. Fig. 5e, BCX-1777 100 nM

Row | SMILES | CHEK1 pS345 induced by RNR inhibition (CHEK1 pS345; 0.5 h time point) | CHEK1 pS345 induced by RNR inhibition (CHEK1 pS345; 4 h time point) | CHEK1 pS345 levels (CHEK1 pS345; CEM cells, VE-822 1 µM, 24 h) | Protein expression level normalized to control (NT): Eukaryotic translation initiation factor 6 (EIF6) (CEM cells) | Protein expression level normalized to control (NT): Ribonucleoside-diphosphate reductase subunit M2 (RRM2) (CEM cells) | Protein expression level normalized to control (NT): Translationally-controlled tumor protein (TPT1) (CEM cells) | decrease of RRM1 protein level (CEM cells; following ATR inhibition, 12 h) | decrease of RRM2 protein level (CEM cells; following ATR inhibition, 12 h) | decrease of thymidylate synthase protein level (CEM cells; following ATR inhibition, 12 h) | RNR Level (CEM cells) | dCK Level (CEM cells) | cells in G2/M (Jurkat cells; Suppl. Fig. 4e, dCF 10 µM) | cells in S phase (Jurkat cells; Suppl. Fig. 4e, dCF 10 µM) | cells in G2/M (Jurkat cells; [1]) | cells in S phase (Jurkat cells; [1]) | Protein expression level normalized to control (NT): Eukaryotic translation initiation factor 6 (EIF6) (CEM cells; listed as DI-82) | Protein expression level normalized to control (NT): Ribonucleoside-diphosphate reductase subunit M2 (RRM2) (CEM cells; listed as DI-82) | Protein expression level normalized to control (NT): Translationally-controlled tumor protein (TPT1) (CEM cells; listed as DI-82)
1 | CNCc1ccc(-c2cc(-c3nc(-c4ccc(S(=O)(=O)C(C)C)cc4)cnc3N)on2)cc1 [VE-822] | abrogated | partially inhibited | reduced | 1.09 and 1.10 and 1.08 | 0.57 and 0.45 and 0.53 | 0.80 and 0.79 and 0.85 | > 20% | > 20% | > 20% | ↓ | ⟷ | – | – | – | – | – | – | –
2 | COc1ccc(-c2nc([C@@H](C)Sc3nc(N)cc(N)n3)c(C)s2)cc1OCCNS(C)(=O)=O [dCKi] | – | – | – | – | – | – | – | – | – | ⟷ | ⟷ | 17% | 30% | 14% | 32% | 1.00 and 0.98 and 0.95 and 0.99 | 1.17 and 0.99 and 1.08 and 1.15 | 0.99 and 0.98 and 0.95
